Test results from ChEMBL document CHEMBL4699469, “Recent Developments in the Biology and Medicinal Chemistry of CDK9 Inhibitors: An Update” (J Med Chem, 2020).
≈ marks a conversion by molar mass, not a printed value. Blank lines part the entries; values can stand above or below the molecule they belong to.

What was measured:
[1] = test system: A2780; assay: Antiproliferative activity against human A2780 cells incubated for […] by crystal violet staining based assay; format: functional, cell-based
[2] = test system: MOLM-13; assay: Antiproliferative activity against human MOLM-13 cells incubated for 72 hrs by Cell Titre-Glo luminescent assay; format: functional, cell-based; conditions: MOLM-13, 72 h
[3] = biological target: T1, Cyclin-dependent kinase 1 (Homo sapiens, UniProt P06493); assay: Inhibition of CDK1 (unknown origin) using Ulight-labeled substrate by TR-FRET LANCE method
[4] = biological target: Cyclin-dependent kinase 6 (Homo sapiens, UniProt Q00534); assay: Inhibition of CDK6 (unknown origin) using Ulight-labeled substrate by TR-FRET LANCE method
[5] = biological target: T2, Cyclin-dependent kinase 2 (Homo sapiens, UniProt P24941); assay: Inhibition of CDK2 (unknown origin) using Ulight-labeled substrate by TR-FRET LANCE method
[6] = biological target: Cyclin-dependent kinase 8 (Homo sapiens, UniProt P49336); assay: Inhibition of CDK8 (unknown origin) by TR-FRET assay
[7] = Plasma clearance in Sprague-Dawley rat at 1 mg/kg, iv measured after 24 hrs by reverse phase HPLC analysis; format: ADME, organism-based
[8] = biological target: Cyclin-dependent kinase 4 (Homo sapiens, UniProt P11802); assay: Inhibition of CDK4 (unknown origin) using Ulight-labeled substrate by TR-FRET LANCE method
[9] = test system: MV4-11; assay: cells; conditions: Homo sapiens, MV4-11, 24 h
[10] = test system: NCI-H929; assay: cells; conditions: Homo sapiens, NCI-H929, 24 h
[11] = biological target: T3, Cyclin-dependent kinase 7 (Homo sapiens, UniProt P50613); assay: Inhibition of CDK7 (unknown origin) using Ulight-labeled substrate by TR-FRET LANCE method
[12] = biological target: T4, CDK9/cyclin T1 (Homo sapiens, UniProt P50750); assay: Inhibition of His-tagged human CDK9/cyclin T1 expressed in insect cells using biotinylated-cdk7tide peptide incubated for 5 hrs by Alpha Screen assay
[13] = biological target: T4, CDK9/cyclin T1; assay: Displacement of Alexa Fluor 647 ADP Tracer from His-tagged human CDK9/Cyclin T1 expressed in baculovirus expression system incubated for 1 hr by adapta assay
[14] = test system: MOLT-4; assay: Antiproliferative activity against human MOLT4 cells incubated for 72 hrs by cell titer glo assay; format: functional, cell-based; conditions: MOLT-4, 72 h
[15] = biological target: CDK7/Cyclin H/MNAT1 (Homo sapiens, UniProt P50613); assay: Displacement of Alexa Fluor 647 ADP Tracer from human CDK7/CyclinH/MAT1 expressed in baculovirus expression system incubated for 1 hr by adapta assay
[16] = biological target: T4, CDK9/cyclin T1; assay: Inhibition of human CDK9 (1 to 372 residues)/N-terminal GST-fused His-tagged CyclinT1 (1 to 726 residues) expressed in baculovirus expression system incubated for 0.5 to 1 hr by TR-FRET assay
[17] = biological target: Cyclin-dependent kinase 2/cyclin E1 (Homo sapiens, UniProt P24941); assay: Inhibition of His-tagged human CDK2/cyclin E1 expressed in insect cells using biotin Ttds-YISPLKSPYKISEG as substrate preincubated for 15 mins followed by ATP and substrate addition and measured after 25 mins by TR-FRET assay
[18] = biological target: Glycogen synthase kinase-3 alpha (Homo sapiens, UniProt P49840); assay: Inhibition of human GSK3alpha
[19] = biological target: Glycogen synthase kinase-3 beta (Homo sapiens, UniProt P49841); assay: Inhibition of human GSK3beta
[20] = Oral bioavailability in Wistar rats at 0.6 to 1 mg/kg measured up to 24 hrs by LC-MS/MS analysis; format: ADME, organism-based; conditions: rat, in vivo, dose 0.6-1 mg/kg
[21] = Thermodynamic solubility of the compound at pH 6.5 incubated for 24 hrs by equilibrium shake flask; format: physicochemical; conditions: buffer, read-out: Therm_solubility
[22] = biological target: CDK3/Cyclin E (Homo sapiens, UniProt Q00526); assay: Inhibition of C-terminal His6-tagged human CDK3/N-terminal GST-tagged human cyclin E expressed in baculovirus infected Sf21 insect cells
[23] = biological target: T5, Cyclin-dependent kinase 9 (Homo sapiens, UniProt P50750); assay: Binding affinity to wild-type human full length CDK9 (M1 to F372 residues) expressed in bacterial expression system by Kinomescan method
[24] = biological target: T3, Cyclin-dependent kinase 7; assay: Binding affinity to wild-type human full length CDK7 (M1 to L344 residues) expressed in mammalian expression system by Kinomescan method
[25] = test system: MOLM-13; assay: Antiproliferative activity against human MOLM-13 cells; format: functional, cell-based
[26] = Solubility of the compound at pH 6.8; format: physicochemical; conditions: buffer
[27] = Solubility of the compound at pH 8.7; format: physicochemical; conditions: buffer
[28] = biological target: T5, Cyclin-dependent kinase 9
[29] = test system: MV4-11; assay: Antitumor activity against human MV4-11 cells xenografted in mouse assessed as tumor growth inhibition at 7.5 mg/kg relative to control; format: functional; conditions: read-out: TGI
[30] = Oral bioavailability in mouse; format: ADME, organism-based; conditions: in vivo
[31] = biological target: T1, Cyclin-dependent kinase 1; assay: Inhibition of CDK1 in human MCF7 cells assessed as reduction in PP1alpha phosphorylation at T320 residue incubated for 6 hrs by immunoblot analysis; format: cell-based
[32] = test system: OPM-2; assay: Growth inhibition of human OPM-2 cells incubated for 24 hrs; format: functional
[33] = biological target: T3, Cyclin-dependent kinase 7; assay: Inhibition of CDK7 in human MCF7 cells assessed as RNA polymerase2 phosphorylation at serine 5 residue residue incubated for 6 hrs by immunoblot analysis; format: cell-based
[34] = biological target: T2, Cyclin-dependent kinase 2; assay: Inhibition of CDK2 in human MCF7 cells assessed as reduction in Rb phosphorylation at T821 residue incubated for 6 hrs by immunoblot analysis; format: cell-based
[35] = Half life in dog; format: ADME, Canis lupus familiaris; conditions: in vivo
[36] = Half life in rat; format: ADME; conditions: in vivo
[37] = Half life in monkey; format: ADME, Macaca mulatta; conditions: rhesus monkey, in vivo
[38] = biological target: Cyclin-dependent kinase 4/6 (Homo sapiens, UniProt P11802+Q00534); assay: Inhibition of CDK4/6 in human MCF7 cells assessed as reduction in Rb phosphorylation at S807/811 residue incubated for 6 hrs by immunoblot analysis; format: cell-based

SMILES: COc1ccc(F)cc1-c1c(F)cnc2[nH]c(C3=CCN([C@H]4CC[C@H](C(=O)O)CC4)CC3)cc12
- IC50 [3]: > 320 nM
- IC50 [4]: 101 nM
- IC50 [5]: > 320 nM
- IC50 [6]: > 320 nM
- clearance [7]: 10.5 mL/min/kg
- IC50 [8]: 162 nM
- IC50 [9]: 138 nM
- IC50 [10]: 40 nM
- IC50 [11]: > 320 nM

SMILES: COC[C@H](C)N[C@H]1CC[C@H](Nc2cc(-c3cccc(NCC4(C#N)CCOCC4)n3)c(Cl)cn2)CC1
- IC50 [13]: < 0.5 nM
- IC50 [14]: 9 nM
- IC50 [15]: > 10000 nM

SMILES: COc1ccc(F)cc1-c1ncnc2[nH]c(C3CCNCC3)cc12
- IC50 [16]: 13 nM

SMILES: CC(C)(C)c1cnc(CSc2cnc(NC(=O)C3CCNCC3)s2)o1 [BMS-387032]
- IC50 [14]: 173 nM

SMILES: Cn1ncc(-c2nc(N[C@H]3CC[C@H](N)CC3)ncc2Cl)c1CC1CC1 [BTX-A51]
- Kd [23]: 4 nM
- Kd [24]: 1.3 nM

SMILES: CN1CC[C@H](c2c(OP(=O)(O)O)cc(O)c3c(=O)cc(-c4ccccc4Cl)oc23)[C@H](O)C1 [TP-1287]
- solubility [26]: 9500 µg/mL (≈ 19.7 mM)
- solubility [27]: 9300 µg/mL (≈ 19.3 mM)
- IC50 [28]: 84 nM
- inhibition in vivo at 7.5 mg/kg [29]: 109%
- F [30]: 182.3%

SMILES: CC(=O)N[C@@H]1CCC[C@H](C(=O)Nc2cc(-c3cnn4c3CC(C)(C)C4)c(Cl)cn2)C1 [ZEMIRCICLIB]
- IC50 [31]: 370 nM
- GI50 [32]: 23 nM
- IC50 [33]: 1100 nM
- IC50 [34]: > 10000 nM
- half-life [35]: < 1 h
- half-life [36]: < 1 h
- half-life [37]: < 1 h
- IC50 [38]: > 10000 nM

The next lines start with the values.

- IC50 [1]: 38 nM
- IC50 [2]: 46 nM
SMILES: Cc1cc(CS(C)(=O)=O)cc(Nc2ncc(F)c(-c3ccc(F)c4ccoc34)n2)c1

- IC50 [12]: < 8 nM
SMILES: O=C(Nc1cc(-c2cccc(NCc3cccc(F)c3)n2)c(Cl)cn1)[C@H]1CNCCO1

- IC50 [17]: 558 nM
SMILES: COc1cc(F)ccc1-c1ncnc(Nc2cccc(CCS(C)(=O)=O)c2)n1

- IC50 [18]: 45 nM
- IC50 [19]: 87 nM
- bioavailability [20]: 54%
- solubility thermodynamic at 24 h [21]: 479 µg/mL (≈ 1.24 mM)
- IC50 [22]: > 890 nM
SMILES: COc1cc(F)ccc1-c1ncnc(Nc2cccc(C[S@](C)(=N)=O)c2)n1 [ATUVECICLIB]

- IC50 [25]: 29 nM
SMILES: COc1cc(F)ccc1-c1cc(Nc2cc(CS(C)(=N)=O)ccn2)ncc1F (centres undefined) [ENITOCICLIB]
